Measured values from patent US20240398709A1, “DRY POWDER FOAMABLE FORMULATIONS FOR DELIVERY OF MEDICAMENTS THROUGH THE MUCOSA” (priority 2021, published 2024).
Blank lines part the entries; values can stand above or below the molecule they belong to.

Tests used:
[1] = test system: mucositis; assay: Amifostine oral rinse in a patient subject to chemotherapy (prevention/treatment of mucositis); assay type: in vivo, human; conditions: for safety of administration: 200 mg WR-2721 (10 ml 0.09 M) or 125 mg WR-1065 (10 ml 0.09 M)
Method: In this example, a patient is subject to chemotherapy as part of a treatment plan for head and neck cancer. The patient presents multiple squamous cell carcinoma tumors in the throat and larynx. The patient is administered amifostine for use after each chemotherapy session (e.g., for oral rinse within 15 minutes to two hours after chemotherapy).
The amifostine is administered to the patient in the formulation described above (Table 2). […] The patient rinses for approximately one minute and thereafter, expels/discards the rinse. The rinse process can be repeated.

[2] = test system: mouth mucosa cells; assay: Uptake of drug / WR-1065 into mouth mucosa cells after oral rinse; assay type: in vivo, human
Method: Specifically, 125 mg of amifostine is provided as an oral rinse. The patient rinses for approximately one minute and thereafter, expels/discards the rinse. The rinse process can be repeated.

[3] = after amifostine injection; animal study; cited from earlier work
[4] = test system: epirubicin-induced oral mucositis; conditions: patients with epirubicin-induced oral mucositis; cited from earlier work
[5] = following intravenous administration; cited from earlier work
[6] = cited from earlier work

WR-1065 concentration in washed, isolated, vital mouth mucosa cells [2]: 3.7-19.9 ng/10^5 cells
SMILES: NCCCNCCS [WR-1065]
safety of administration [1]: can be safely administered
systemic side-effects ([1]; oral rinse): no systemic side-effects are observed
tolerability ([1]; oral rinse): well-tolerated
time of maximum tissue concentrations of WR-1065 [3]: five to fifteen

SMILES: NCCCNCCSP(=O)(O)O [amifostine, S-2-(3-aminopropylamino) ethyl dihydrogen phosphorothioate]
safety of administration [1]: can be safely administered
difference between patients given amifostine oral rinse and control [4]: no significant difference
clearance from the plasma [5]: rapidly cleared
pH of maximal rate of hydrolysis ([6]; hydrolysis of amifostine to WR-1065 and inorganic phosphate): 3.0
hydrolysis at neutral pH ([6]; over four hours at room temperature): no detectable hydrolysis
stability at gastric pH ([6]; pH from 1 to 3): unstable
